According to patent US20080269116A1 (priority 2004, published 2008):
Where no end group is shown, it is not given here. The star is where a group is joined. Octanoyl = CCCCCCCC(=O)*

What was measured:
GHS-R = target: T1, GHS-R (Homo sapiens, UniProt Q92847); test: Intracellular calcium mobilization in cultured human T cells (Fura-2); format: cell-based
T1 construct: endogenous in cells; host or cells: cultured human T cells
Experimental: Intracellular calcium mobilization. […] Cells were incubated in PBS containing 5 μM Fura-2 AM for 30 minutes at room temperature. The cells were subsequently washed and then resuspended at 1×10^6/mL in PBS. A total of 2 mL of the cell suspension was placed in a continuously stirring cuvette at room temperature in an LS50B spectrophotometer (Perkin-Elmer, Wellesley, Mass.). Fluorescence was monitored at λex1=340 nm, λex2=380 nm, and λem=510 nm. The data are presented as the relative ratio of fluorescence excited at 340 and 380 nm.

Human PBMCs = test: Cytokine production by PHA-stimulated human PBMCs (ELISA); format: cell-based; conditions: 24 h
LPS-induced endotoxemia [1] = test: LPS-induced endotoxemia in mice: serum cytokine levels (Bio-Plex); format: in vivo, BALB/c mice
Experimental: (§1) Mice. Male 20-22 g BALB/c mice (Taconic, Germantown, N.Y.), 8-10 weeks old, were used. The guidelines proposed by the committee for the Care of Laboratory Animal Resources Commission of Life Sciences-National Research Council were followed to minimize animal pain and distress. Each animal received rodent laboratory chow and ad libitum water.
(§2) LPS-induced inflammation. Endotoxin shock in mice was induced by intraperitoneal (i.p.) injection with 10 μg of LPS (E. coli serotype 055:B5, Sigma) as described previously (Bochkov et al. 2002. Nature. 419: 77-8). […] Mice were sacrificed 4 h and 24 h post-LPS challenge and visceral organs and serum were collected.
(§3) Cytokine estimation. IL-1β, IL-6 and TNF-α were estimated in T cell supernatants after 24 h using commercial ELISA kits according to manufacturer's instructions (Biosource, Camarillo, Calif.). Serum cytokines were analyzed using Bio-Plex Mouse Cytokine 18-Plex Panel according to manufacturer's instructions (Biorad, Hercules, Calif.).

T cells or PBMCs = test: Cytolytic effects: lactate dehydrogenase and trypan blue cell counts; format: cell-based, human; conditions: control vs hormone-treated T cells or PBMCs
Text: The classical pro-inflammatory cytokines, IL-1a, IL-1β, IL-6 and TNF-α are known to play a critical role in development of anorexia-cachexia syndrome (Inui et al. 1999. Cancer Res. 59: 4493-4501). The anorexia-cachexia syndrome is a complex multifactorial metabolic condition associated with altered protein, carbohydrate and fat metabolism resulting in anorexia, negative energy balance, weight loss and muscle wasting (Kotler et al. 2000. Ann. Internal Med. 133: 622-634).

LPS-induced anorexia = test: Food intake in LPS-challenged and control mice; format: in vivo, BALB/c mice
Experimental: as §1, §2

human T cells [2] = test: Actin polymerization in human T cells (phalloidin staining); format: cell-based; conditions: ghrelin 100 ng/ml, 20 min
Text: Actin Polymerization. […] Thereafter cells were fixed and permeabilized in 2% Paraformaldehyde plus 0.1% Triton-X 100 and stained for actin using phalloidin AF-594 and nucleus by DAPI.

primary human T cells [3] = test: Leptin-induced cytokine protein and mRNA expression in anti-CD3-activated human T cells; format: cell-based; conditions: 24 h
Experimental: (§4) T cell isolation and culture. Peripheral blood mononuclear cells (PBMC) were obtained by Ficoll-Hypaque density centrifugation. T cells were purified from PBMC using human T cell enrichment columns (R&D systems) via high affinity negative selection according to manufacturer's instructions. […] T cells were stimulated with plate bound anti-human CD3 antibody (BD Pharmingen, San Diego, Calif.) (200 ng/ml) at a concentration of 3×10^6 cells/ml in AIM-V serum free media for 24 h.
as §3
(§5) Real Time RT-PCR analysis. RT-PCR was performed as described previously (Nagasawa et al. Adv. Immunol. 71: 211-228 (1999)). Total RNA (2 μg) and oligo-dT primers were used to synthesize single-stranded cDNA using the Reverse Transcription kit (Life Technologies, Gaithersburg, Md.) according to manufacturer's instructions. The PCR was set up using SYBR green Master Mix (Applied Biosystems), 1 μl cDNA and gene-specific primers at a final concentration of 0.3 μM. Thermal cycling was carried out on the Applied Biosystems GeneAmp 7700 Sequence Detector and SYBR green dye intensity was analyzed using GeneAmp 7700 SDS software. […] Mouse IL-1β, IL-6, TNF-α, GAPDH and human GHS-R1a primers were designed using ABI prism software (PE Applied Biosystems). The PCR product of the GHS-R 1a amplification was quantitated using the Agilent 2100 Bioanalyzer (Agilent Technologies, Palo Alto, Calif.). Primers are available upon request. No PCR products were generated from genomic versus cDNA template.

primary human T cells [4] = test: Cytokine production by anti-CD3-stimulated primary human T cells (ELISA); format: cell-based; conditions: immobilized anti-CD3 antibody, 24 h
Experimental: as §4, §3

LPS-induced endotoxemia [5] = test: LPS-induced endotoxemia in mice: tissue cytokine mRNA, real time PCR; format: in vivo, BALB/c mice; conditions: for TNF-α expression: 24 h post LPS
Experimental: as §1, §2, §5

T cells = test: Cytokine mRNA expression in T cells, real time RT-PCR; format: cell-based, human; conditions: normalized with GAPDH
Experimental: as §4, §5

human T cells [6] = test: T cell proliferation and IL-2 levels after anti-CD3 mAb and ghrelin; format: cell-based; conditions: anti-CD3 mAb and ghrelin treatment
human T cells [7] = test: Effect of leptin on ghrelin and GHS-R expression in human T cells; format: cell-based
Experimental: as §4
as §5, with “No PCR products were generated from genomic versus cDNA template.” left out

[8] = ghrelin alone vs sham control mice
[9] = spleen and liver, 4 and 24 h post LPS, ghrelin 5 mg/kg i.p.
[10] = PHA 1 μg/ml, ghrelin 1 to 100 ng/ml
[11] = leptin alone, primary human T cells and PBMCs

T1 sequence (Q92847 whole entry): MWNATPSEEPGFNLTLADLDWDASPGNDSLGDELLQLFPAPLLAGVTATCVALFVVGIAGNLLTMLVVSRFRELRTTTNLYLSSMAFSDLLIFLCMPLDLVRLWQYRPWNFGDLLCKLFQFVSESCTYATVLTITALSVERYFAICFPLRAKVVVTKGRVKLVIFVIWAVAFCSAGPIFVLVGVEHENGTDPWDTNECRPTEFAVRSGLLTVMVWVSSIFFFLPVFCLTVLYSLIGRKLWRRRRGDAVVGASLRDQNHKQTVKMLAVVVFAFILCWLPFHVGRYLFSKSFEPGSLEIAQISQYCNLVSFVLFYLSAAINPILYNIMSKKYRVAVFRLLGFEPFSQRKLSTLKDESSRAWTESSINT

Question: Which “rise in intracellular [Ca^2+]” value (GHS-R; cultured human T cells, ghrelin 100 ng/ml) does the source give for “Gly-Ser-Ser(n-Octanoyl)-Phe-Leu-Ser-Pro-Glu-His-Gln-Arg-Val-Gln-Gln-Arg-Lys-Glu-Ser-NH2 (GSS(Octanoyl)FLSPEHQRVQQRKES-NH2; N-terminus assumed; SMILES CCCCCCCC(=O)OC[C@H](NC(=O)[C@H](CO)NC(=O)CN)C(=O)N[C@@H](Cc1ccccc1)C(=O)N[C@@H](CC(C)C)C(=O)N[C@@H](CO)C(=O)N1CCC[C@H]1C(=O)N[C@@H](CCC(=O)O)C(=O)N[C@@H](Cc1c[nH]cn1)C(=O)N[C@@H](CCC(N)=O)C(=O)N[C@@H](CCCNC(=N)N)C(=O)N[C@H](C(=O)N[C@@H](CCC(N)=O)C(=O)N[C@@H](CCC(N)=O)C(=O)N[C@@H](CCCNC(=N)N)C(=O)N[C@@H](CCCCN)C(=O)N[C@@H](CCC(=O)O)C(=O)N[C@@H](CO)C(N)=O)C(C)C) [ghrelin 1-18 fragment]” here?
Answer: significant and specific rise in intracellular [Ca^2+]

Question: [D-Lys-3]-GHRP-6 [reference compound] was tested. Which “effect on ghrelin-mediated intracellular calcium release” value (GHS-R; pretreatment with antagonist 10^−4 M, then ghrelin 100 ng/ml) did it give?
Answer: markedly attenuated

Question: And the “effect on ghrelin-mediated inhibition of cytokine production” value (Human PBMCs; antagonist 10^−4 M added with ghrelin, PHA-stimulated PBMCs)?
Answer: attenuated this ghrelin-mediated inhibition

Question: How did the “serum IL-1β” value (LPS-induced endotoxemia [1]; 24 h after LPS challenge) turn out when ghrelin was run?
Answer: significant inhibition

Question: What about the “serum IL-6” value (LPS-induced endotoxemia [1]; 24 h after LPS challenge) of the same substance?
Answer: significant inhibition

Question: And the “serum ILα levels” value (LPS-induced endotoxemia [1]; 24 h post LPS and ghrelin treatment)?
Answer: inhibited

Question: And the “Serum IL-1α level” value (LPS-induced endotoxemia [1]; [8])?
Answer: significantly inhibited

Question: What about the “Serum IL-1β level” value (LPS-induced endotoxemia [1]; [8]) of the same substance?
Answer: significantly inhibited

Question: What about the “circulating IL-6 level” value (LPS-induced endotoxemia [1]; serum, 4 h) of the same substance?
Answer: but not in IL-1β (FIG. 7a) or IL-6

Question: What about the “circulating TNF-α level” value (LPS-induced endotoxemia [1]; serum, 4 h) of the same substance?
Answer: significant change

Question: And the “cytolytic effects (LDH, cell counts by trypan blue exclusion)” value (T cells or PBMCs)?
Answer: failed to demonstrate any significant difference between control and hormone-treated cells

Question: And the “LPS-induced anorexia (food intake)” value (LPS-induced anorexia; 24 h post ghrelin and LPS, prior ghrelin treatment)?
Answer: significant attenuation of this LPS-induced anorexia

Question: What about the “increase in food intake compared to sham controls” value (LPS-induced anorexia; ghrelin-treated control mice in the absence of LPS challenge, 24 h) of the same substance?
Answer: 30%

Question: What about the “actin polymerization / polarization of F-actin” value (human T cells [2]) of the same substance?
Answer: marked increase in broad membrane structures characteristic of lamellipodia with typical polarization of F-actin

Question: What about the “leptin-induced cytokine protein and gene expression (IL-1β, IL-6, TNF-α)” value (primary human T cells [3]; ghrelin co-incubated with leptin 100 nM, T cells) of the same substance?
Answer: dose-dependent inhibition

Question: What about the IL-1β production (primary human T cells [4]) of the same substance?
Answer: significant dose-dependent inhibition

Question: What about the IL-6 production (primary human T cells [4]) of the same substance?
Answer: significant dose-dependent inhibition

Question: And the TNF-α expression (LPS-induced endotoxemia [5]; liver)?
Answer: inhibited

Question: And the “IL-1β mRNA expression” value (LPS-induced endotoxemia [5]; [9])?
Answer: attenuation

Question: What about the “IL-6 mRNA expression” value (LPS-induced endotoxemia [5]; [9]) of the same substance?
Answer: attenuation

Question: And the “TNF-α mRNA” value (LPS-induced endotoxemia [5]; spleen and liver, 4 h post LPS)?
Answer: Attenuation

Question: And the TNF-α expression (LPS-induced endotoxemia [5]; spleen)?
Answer: remained unchanged

Question: And the “IL-1β mRNA expression” value (T cells)?
Answer: significantly inhibits

Question: What about the “IL-6 mRNA expression” value (T cells) of the same substance?
Answer: significantly inhibits

Question: What about the “TNF-α mRNA expression” value (T cells) of the same substance?
Answer: significantly inhibits

Question: And the IL-2 secretion (human T cells [6])?
Answer: no significant effects

Question: What about the T cell proliferation (human T cells [6]) of the same substance?
Answer: no significant effects

Question: And the TGF-β production (Human PBMCs; PHA 1 μg/ml, any concentration tested)?
Answer: failed to alter TGF-β production

Question: What about the IL-1β production (Human PBMCs; [10]) of the same substance?
Answer: significant inhibition

Question: And the IL-6 production (Human PBMCs; [10])?
Answer: significant inhibition

Question: What about the TNF-α production (Human PBMCs; [10]) of the same substance?
Answer: significant inhibition

Question: With “leptin: a member of gp130 family of cytokines, regarded as a pro-inflammatory inducer” as the substance, how does the “ghrelin protein production or gene expression” value (human T cells [7]; anti-CD3-stimulated T cells, 24 h) read?
Answer: failed to exert any significant effects

Question: What about the “GHS-R mRNA expression” value (human T cells [7]; human T cells, real time RT-PCR) of the same substance?
Answer: significant increase

Question: And the “IL-1β protein and mRNA expression” value (primary human T cells [3]; [11])?
Answer: significant dose-dependent increase

Question: What about the “IL-6 protein and mRNA expression” value (primary human T cells [3]; [11]) of the same substance?
Answer: significant dose-dependent increase

Question: What about the “TNF-α protein and mRNA expression” value (primary human T cells [3]; [11]) of the same substance?
Answer: significant dose-dependent increase
